The results in this text go back to patent US8664257B2, “Oxygen-substituted 3-heteroaroylamino-propionic acid derivatives and their use as pharmaceuticals” (Sanofi, priority 2010, dated 2014).

SMILES strings stand for the structures. Where two headings read alike, the source gives them in different places. Bounds are passed on as bounds.

In the assay the target is T1, Recombinant human cathepsin A (Homo sapiens, UniProt P10619).
T1 construct: Recombinant human cathepsin A (residues 29-480, with a C-terminal 10-His tag); 10-His (C); purchased R&D Systems 1049-SE
T1 sequence (P10619 29-312 limits assumed): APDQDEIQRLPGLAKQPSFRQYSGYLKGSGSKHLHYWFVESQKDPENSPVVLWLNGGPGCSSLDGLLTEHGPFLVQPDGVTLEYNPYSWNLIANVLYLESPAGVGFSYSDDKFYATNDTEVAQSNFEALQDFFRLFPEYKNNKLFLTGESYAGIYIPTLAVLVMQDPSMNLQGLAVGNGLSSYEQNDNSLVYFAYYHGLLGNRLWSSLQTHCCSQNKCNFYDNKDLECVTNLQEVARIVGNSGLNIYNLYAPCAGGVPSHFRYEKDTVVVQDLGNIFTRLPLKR
T1 sequence (P10619 327-480 limits assumed): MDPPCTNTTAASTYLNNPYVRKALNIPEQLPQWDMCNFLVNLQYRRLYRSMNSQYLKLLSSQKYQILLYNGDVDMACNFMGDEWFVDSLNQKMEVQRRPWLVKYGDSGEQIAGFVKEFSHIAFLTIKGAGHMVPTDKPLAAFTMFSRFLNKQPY
As to the kind of experiment: Cathepsin A inhibitory activity. It is filed as biochemical. Summed up:
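Human cathepsin A (res. 29-480, C-His10) pre-activated with cathepsin L (MES pH 6.0, DTT, 15 min, 37 °C; quenched with 10 μM E-64). Enzyme (833 ng/ml) preincubated 15 min RT with compound in MES pH 5.5/DTT, then 2 μM Bodipy FL-bradykinin for 15 min RT. Capillary electrophoresis product/substrate peak areas; IC50 from % inhibition.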

[1] abbreviates: pharmacological test "Cathepsin A inhibitory activity", IC50 given as class A/B/C, read-out: Activity (2): Cathepsin A inhibitory activity, IC50 class.

As to `O=C(O)C[C@H](NC(=O)c1cc(O)n(-c2ccccc2Cl)n1)c1ccccc1Br` [Example 204], the IC50 under setting [1] is 100 to 1000 nM.
For `N#Cc1cccc([C@H](CC(=O)O)NC(=O)c2cc(O)n(-c3ccccc3Cl)n2)c1` [Example 205], the concentration for half-maximal inhibition (IC50) under setting [1] lay within 100 to 1000 nM.
On to `O=C(O)CC(NC(=O)c1cc(O)n(-c2ccccc2Cl)n1)c1cccc(C(F)(F)F)c1` (stereo not drawn) [Example 206], for which, under setting [1], the IC50 was 100 to 1000 nM.
On the same count and under the same terms, the result for `COc1ccc(C(CC(=O)O)NC(=O)c2cc(O)n(-c3ccccc3Cl)n2)c(OC)c1` (stereo not drawn) [Example 207] reads 100 to 1000 nM; that for `O=C(O)CC(NC(=O)c1cc(O)n(-c2ccccc2Cl)n1)c1ccccc1F` (stereo not drawn) [Example 208], 100 to 1000 nM; that for `COc1ccc(Cl)cc1C(CC(=O)O)NC(=O)c1cc(O)n(-c2ccccc2Cl)n1` (stereo not drawn) [Example 209], 100 to 1000 nM.
The same measure, in the same setting: the result for `COc1ccc(C(CC(=O)O)NC(=O)c2cc(O)n(-c3ccccc3Cl)n2)c(Cl)c1` (stereo not drawn) [Example 210] reads 100 to 1000 nM; that for `O=C(O)C[C@H](NC(=O)c1cc(O)n(-c2ccccc2Cl)n1)c1ccc(F)cc1` [Example 211], 100 to 1000 nM.
In the case of `O=C(O)C[C@H](NC(=O)c1cc(O)n(-c2ccccc2Cl)n1)c1cccc(Cl)c1Cl` [Example 212], the IC50 under setting [1] was < 100 nM.
Same read-out and setting: the result for `COc1cccc([C@H](CC(=O)O)NC(=O)c2cc(O)n(-c3ccccc3Cl)n2)c1` [Example 213] reads 100 to 1000 nM; that for `O=C(O)C[C@H](NC(=O)c1cc(O)n(-c2ccccc2Cl)n1)c1cccc(Cl)c1` [Example 214], 100 to 1000 nM; that for `O=C(O)CC(NC(=O)c1cc(O)n(-c2ccccc2Cl)n1)c1ccc(OC(F)(F)F)cc1` (stereo not drawn) [Example 215], 100 to 1000 nM.
On the same count and under the same terms, the result for `COc1ccccc1[C@@H](NC(=O)c1cc(O)n(-c2ccccc2Cl)n1)[C@@H](O)C(=O)O` [Example 216] reads 1000 to 30000 nM; that for `Cc1cccc([C@H](CC(=O)O)NC(=O)c2cc(O)n(-c3ccccc3Cl)n2)c1` [Example 217], 100 to 1000 nM; that for `O=C(O)C[C@H](NC(=O)c1cc(O)n(-c2ccccc2Cl)n1)c1cccc(C(F)(F)F)c1` [Example 218], 100 to 1000 nM.
Still for that read-out and setting: in the case of `O=C(O)CC(NC(=O)c1cc(O)n(-c2ccccc2Cl)n1)c1ccc(-c2cccc(F)c2)cc1` (stereo not drawn) [Example 219] it was 100 to 1000 nM.
`Cc1cccc(C(CC(=O)O)NC(=O)c2cc(O)n(-c3ccccc3Cl)n2)c1C` (stereo not drawn) [Example 220]: under setting [1], the concentration for half-maximal inhibition (IC50) lay in the range of 100 to 1000 nM.
With `O=C(O)CC(NC(=O)c1cc(O)n(-c2ccccc2Cl)n1)c1cccc(C(F)(F)F)c1F` (stereo not drawn) [Example 221, 3-{[1-(2-Chloro-phenyl)-5-hydroxy-1H-pyrazole-3-carbonyl]-amino}-3-(2-fluoro-3-trifluoromethyl-phenyl)-propionic acid], the IC50 is, setting by setting: under setting [1], 100 to 1000 nM; (recombinant human cathepsin A 833 ng/ml, Bodipy FL-labeled bradykinin 2 μM, pH 5.5, read-out: CATH-A IC50) 322 nM.
For the compound `O=C(O)CC(NC(=O)c1cc(O)n(-c2ccccc2Cl)n1)c1cccc(Cl)c1F` (stereo not drawn) [Example 222], the IC50 under setting [1] was in the range of 100 to 1000 nM.
The same measure, in the same setting: in the case of `O=C(O)CC(NC(=O)c1cc(O)n(-c2ccccc2Cl)n1)c1cccc(C(F)(F)F)c1Cl` (stereo not drawn) [Example 223] it was 100 to 1000 nM.
Consider `CCc1ccc(C(CC(=O)O)NC(=O)c2cc(O)n(-c3ccccc3Cl)n2)cc1` (stereo not drawn) [Example 224], for which the IC50 under setting [1] lay within 100 to 1000 nM.
In the case of `Cc1ccc(C(CC(=O)O)NC(=O)c2cc(O)n(-c3ccccc3Cl)n2)c(C)c1` (stereo not drawn) [Example 225], the half-maximal inhibitory concentration (IC50) under setting [1] was 100 to 1000 nM.
In the case of `O=C(O)CC(NC(=O)c1cc(O)n(-c2ccccc2Cl)n1)c1ccc(-c2ccccc2)cc1` (stereo not drawn) [Example 226], the IC50 under setting [1] is 100 to 1000 nM.
Still for that read-out and setting: in the case of `O=C(O)CC(NC(=O)c1cc(O)n(-c2ccccc2Cl)n1)c1ccc(Cl)c(Cl)c1` (stereo not drawn) [Example 227] it was 100 to 1000 nM.
Take `O=C(O)CC(NC(=O)c1cc(O)n(-c2ccccc2F)n1)c1cccc2c1OCO2` (stereo not drawn) [Example 228]: under setting [1], the IC50 was in the range of 100 to 1000 nM.
On to `O=C(O)CC(NC(=O)c1cc(O)n(-c2ccccc2F)n1)c1cccc(OCc2ccccc2)c1` (stereo not drawn) [Example 229], for which, under setting [1], the IC50 is 1000 to 30000 nM.
The same measure, in the same setting: in the case of `N#Cc1cccc([C@H](CC(=O)O)NC(=O)c2cc(O)n(-c3ccccc3F)n2)c1` [Example 230] it was 100 to 1000 nM; in that of `O=C(O)CC(NC(=O)c1cc(O)n(-c2ccccc2F)n1)c1cccc(C(F)(F)F)c1` (stereo not drawn) [Example 231], 100 to 1000 nM; in that of `COc1ccc(C(CC(=O)O)NC(=O)c2cc(O)n(-c3ccccc3F)n2)c(OC)c1` (stereo not drawn) [Example 232], 100 to 1000 nM.
Same read-out and setting: the result for `O=C(O)CC(NC(=O)c1cc(O)n(-c2ccccc2F)n1)c1ccccc1F` (stereo not drawn) [Example 233] reads 100 to 1000 nM.
Still for that read-out and setting: in the case of `COc1ccc(Cl)cc1C(CC(=O)O)NC(=O)c1cc(O)n(-c2ccccc2F)n1` (stereo not drawn) [Example 234] it was 100 to 1000 nM; in that of `COc1ccc(C(CC(=O)O)NC(=O)c2cc(O)n(-c3ccccc3F)n2)c(Cl)c1` (stereo not drawn) [Example 235], 100 to 1000 nM.
For `O=C(O)C[C@H](NC(=O)c1cc(O)n(-c2ccccc2F)n1)c1ccc(F)cc1` [Example 236], under setting [1], the half-inhibitory concentration (IC50) lay in the range of 100 to 1000 nM.
Still for that read-out and setting: in the case of `COc1cccc([C@H](CC(=O)O)NC(=O)c2cc(O)n(-c3ccccc3F)n2)c1` [Example 237] it was 100 to 1000 nM; in that of `O=C(O)CC(NC(=O)c1cc(O)n(-c2ccccc2F)n1)c1ccc(C(F)(F)F)cc1F` (stereo not drawn) [Example 238], 100 to 1000 nM; in that of `O=C(O)CC(NC(=O)c1cc(O)n(-c2ccccc2F)n1)c1ccc(OC(F)(F)F)cc1` (stereo not drawn) [Example 239], 100 to 1000 nM.
On the same count and under the same terms, in the case of `COc1ccccc1[C@@H](NC(=O)c1cc(O)n(-c2ccccc2F)n1)[C@@H](O)C(=O)O` [Example 240] it was 1000 to 30000 nM.
The same measure, in the same setting: in the case of `O=C(O)C[C@H](NC(=O)c1cc(O)n(-c2ccccc2F)n1)c1cccc(C(F)(F)F)c1` [Example 241] it was 100 to 1000 nM; in that of `O=C(O)CC(NC(=O)c1cc(O)n(-c2ccccc2F)n1)c1ccc(-c2cccc(F)c2)cc1` (stereo not drawn) [Example 242], 100 to 1000 nM; in that of `O=C(O)CC(NC(=O)c1cc(O)n(-c2ccccc2F)n1)c1ccc(Cl)cc1F` (stereo not drawn) [Example 243], 100 to 1000 nM.
As for `O=C(O)CC(NC(=O)c1cc(O)n(-c2ccccc2F)n1)c1cccc(Cl)c1F` (stereo not drawn) [Example 244], under setting [1], the IC50 lay in the range of 100 to 1000 nM.
Same read-out and setting: in the case of `O=C(O)CC(NC(=O)c1cc(O)n(-c2ccccc2F)n1)c1cccc(C(F)(F)F)c1Cl` (stereo not drawn) [Example 245] it was 100 to 1000 nM; in that of `O=C(O)CC(NC(=O)c1cc(O)n(-c2ccccc2F)n1)c1cccc(Oc2ccc(Cl)cc2)c1` (stereo not drawn) [Example 246], 100 to 1000 nM.
On to `Cc1ccc(C(CC(=O)O)NC(=O)c2cc(O)n(-c3ccccc3F)n2)c(C)c1` (stereo not drawn) [Example 247], for which, under setting [1], the half-inhibitory concentration (IC50) was 100 to 1000 nM.
With `Cc1cc(F)ccc1C(CC(=O)O)NC(=O)c1cc(O)n(-c2ccccc2F)n1` (stereo not drawn) [Example 248], the half-maximal inhibitory concentration (IC50) under setting [1] was 100 to 1000 nM.
Same read-out and setting: the result for `O=C(O)CC(NC(=O)c1cc(O)n(-c2cccc(Cl)c2)n1)c1cccc2c1OCO2` (stereo not drawn) [Example 249] reads 100 to 1000 nM.
On the same count and under the same terms, in the case of `COc1ccc(C(CC(=O)O)NC(=O)c2cc(O)n(-c3cccc(Cl)c3)n2)c(C)c1` (stereo not drawn) [Example 250] it was 100 to 1000 nM; in that of `O=C(O)C[C@H](NC(=O)c1cc(O)n(-c2cccc(Cl)c2)n1)c1ccccc1Br` [Example 251], 100 to 1000 nM; in that of `N#Cc1cccc([C@H](CC(=O)O)NC(=O)c2cc(O)n(-c3cccc(Cl)c3)n2)c1` [Example 252], 1000 to 30000 nM.
On the same count and under the same terms, in the case of `COc1ccccc1[C@H](CC(=O)O)NC(=O)c1cc(O)n(-c2cccc(Cl)c2)n1` [Example 253] it was 100 to 1000 nM; in that of `O=C(O)CC(NC(=O)c1cc(O)n(-c2cccc(Cl)c2)n1)c1ccccc1F` (stereo not drawn) [Example 254], 100 to 1000 nM; in that of `COc1ccc(Cl)cc1C(CC(=O)O)NC(=O)c1cc(O)n(-c2cccc(Cl)c2)n1` (stereo not drawn) [Example 255], 100 to 1000 nM.
For the compound `O=C(O)C[C@H](NC(=O)c1cc(O)n(-c2cccc(Cl)c2)n1)c1ccc(C(F)(F)F)cc1` [Example 256], the half-maximal inhibitory concentration (IC50) under setting [1] lay in the range of 1000 to 30000 nM.
Still for that read-out and setting: in the case of `O=C(O)CC(NC(=O)c1cc(O)n(-c2cccc(Cl)c2)n1)c1cccc(Cl)c1Cl` (stereo not drawn) [Example 257] it was 100 to 1000 nM.
On to `Cc1cccc([C@H](CC(=O)O)NC(=O)c2cc(O)n(-c3cccc(Cl)c3)n2)c1` [Example 258], for which the half-maximal inhibitory concentration (IC50) under setting [1] lay in the range of 100 to 1000 nM.
The same measure, in the same setting: the result for `O=C(O)C[C@H](NC(=O)c1cc(O)n(-c2cccc(Cl)c2)n1)c1cccc(C(F)(F)F)c1` [Example 259] reads 1000 to 30000 nM; that for `O=C(O)CC(NC(=O)c1cc(O)n(-c2cccc(Cl)c2)n1)c1ccc(-c2cccc(F)c2)cc1` (stereo not drawn) [Example 260], 1000 to 30000 nM.
Still for that read-out and setting: in the case of `Cc1cccc(C(CC(=O)O)NC(=O)c2cc(O)n(-c3cccc(Cl)c3)n2)c1C` (stereo not drawn) [Example 261] it was 100 to 1000 nM; in that of `O=C(O)CC(NC(=O)c1cc(O)n(-c2cccc(Cl)c2)n1)c1cccc(Cl)c1F` (stereo not drawn) [Example 262], 100 to 1000 nM.
Still for that read-out and setting: the result for `O=C(O)CC(NC(=O)c1cc(O)n(-c2cccc(Cl)c2)n1)c1cccc(C(F)(F)F)c1Cl` (stereo not drawn) [Example 263] reads 100 to 1000 nM; that for `CCc1ccc(C(CC(=O)O)NC(=O)c2cc(O)n(-c3cccc(Cl)c3)n2)cc1` (stereo not drawn) [Example 264], 100 to 1000 nM.
In the case of `O=C(O)C[C@H](NC(=O)c1cc(O)n(-c2cccc(Cl)c2)n1)c1c(F)cccc1F` [Example 265], under setting [1], the concentration for half-maximal inhibition (IC50) was in the range of 100 to 1000 nM.
